The source made the active and inactive calls.
What was measured:
[1] = target: Muscarinic acetylcholine receptor M1 (Rattus norvegicus, UniProt P08482); test: rat M1 positive allosteric modulator potency, dose response, cell-based, calcium mobilization, CHO-K1, ACh EC20 (AID 2425); format: functional
[2] = Luminescent dose response cell-based high throughput screening assay for inhibitors of the Janus kinase 2 mutant JAK2V617F. [Related pubchem assays: 1446 (Primary screen.), 1521 (Confirmation assay.), 1486 (Counter screen.)]; format: functional
[3] = inhibitors of intracellular T. cruzi replication, confirmation, NIH3T3 host cells, beta-gal luminescence (AID 2044); format: functional, cell-based;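 further: intracellular parasites grown in NIH/3T3 mouse fibroblasts as host cells; luminescent beta-galactosidase reporter signal from transgenic T. cruzi replicating inside host cells; inhibitors lower the luminescence signal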
[4] = cytotoxicity toward NIH3T3 fibroblasts, dose response, counter-screen, cell-based, ATP luminescence, mouse fibroblasts (AID 2010); format: functional;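 further: cells exposed to compound for about 90 hours before reading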
HEK293 = test: inhibitors of LMP1-driven NF-kB reporter, dose response, cell-based, HEK293, luciferase, cherry-pick (AID 588343); format: functional; conditions: Homo sapiens
[5] = target: ATP-binding cassette sub-family B member 6 (Homo sapiens, UniProt Q9NP58); test: ABCB6 transporter inhibitors, dose response, K562-ABCB6 cells, flow cytometry, cherry pick 1 (AID 623955); format: functional; conditions: read-out: EC50_MICROM
ATP-binding cassette sub-family B member 6, sequence (Q9NP58 whole entry): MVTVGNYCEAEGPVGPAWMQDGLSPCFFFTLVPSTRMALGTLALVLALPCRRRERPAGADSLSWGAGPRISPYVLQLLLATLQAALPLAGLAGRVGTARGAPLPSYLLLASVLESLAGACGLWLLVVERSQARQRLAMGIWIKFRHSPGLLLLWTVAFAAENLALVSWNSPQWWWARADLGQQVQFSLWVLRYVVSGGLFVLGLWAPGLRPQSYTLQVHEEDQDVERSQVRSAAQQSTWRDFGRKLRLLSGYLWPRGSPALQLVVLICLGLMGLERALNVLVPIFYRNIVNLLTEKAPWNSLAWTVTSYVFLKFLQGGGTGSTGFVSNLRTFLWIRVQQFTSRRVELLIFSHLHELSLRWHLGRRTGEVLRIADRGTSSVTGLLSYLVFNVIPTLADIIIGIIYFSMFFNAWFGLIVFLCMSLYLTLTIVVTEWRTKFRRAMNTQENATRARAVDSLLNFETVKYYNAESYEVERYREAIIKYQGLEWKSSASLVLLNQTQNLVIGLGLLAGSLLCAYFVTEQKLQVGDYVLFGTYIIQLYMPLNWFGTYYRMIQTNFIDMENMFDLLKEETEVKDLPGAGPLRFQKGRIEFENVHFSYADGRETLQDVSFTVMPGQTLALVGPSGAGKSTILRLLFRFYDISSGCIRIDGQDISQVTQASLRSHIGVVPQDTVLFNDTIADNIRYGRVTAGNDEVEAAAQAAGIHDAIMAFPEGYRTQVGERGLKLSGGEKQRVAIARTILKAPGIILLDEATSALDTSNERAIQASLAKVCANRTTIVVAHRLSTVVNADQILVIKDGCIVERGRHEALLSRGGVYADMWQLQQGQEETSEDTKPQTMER

[6] = target: Solute carrier family 12 member 2/member 5 (Homo sapiens, UniProt P55011+Q9H2X9); test: KCC2 and NKCC1 inhibition by rubidium flux, cell-based, NKCC1 counter-screen (AID 1734); format: functional, HEK293
[7] = A High Throughput Confirmatory Assay used to Identify Novel Compounds that Inhibit Mycobacterium Tuberculosis in the absence of Glycerol.; format: functional
[8] = target: Bifunctional protein GlmU (Mycobacterium tuberculosis, UniProt P9WMN3); test: Inhibitors of Mycobacterial Glucosamine-1-phosphate acetyl transferase (GlmU). Secondary screen.; design: species or system Mycobacterium tuberculosis H37Rv
Bifunctional protein GlmU, sequence (P9WMN3 whole entry): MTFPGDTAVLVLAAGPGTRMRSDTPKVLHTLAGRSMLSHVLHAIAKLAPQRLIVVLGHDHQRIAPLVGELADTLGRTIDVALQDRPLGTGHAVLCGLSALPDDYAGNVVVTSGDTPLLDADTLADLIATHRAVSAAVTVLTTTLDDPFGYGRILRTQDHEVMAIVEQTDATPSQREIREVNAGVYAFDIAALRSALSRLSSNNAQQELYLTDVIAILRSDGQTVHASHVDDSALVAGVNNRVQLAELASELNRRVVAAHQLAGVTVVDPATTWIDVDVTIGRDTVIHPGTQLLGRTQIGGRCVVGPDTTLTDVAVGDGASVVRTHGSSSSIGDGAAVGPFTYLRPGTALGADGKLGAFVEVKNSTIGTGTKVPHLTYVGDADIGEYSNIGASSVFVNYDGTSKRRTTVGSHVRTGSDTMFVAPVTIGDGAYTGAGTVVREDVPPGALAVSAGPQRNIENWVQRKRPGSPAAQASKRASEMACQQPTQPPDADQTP

Galanin receptor type 2 = Galanin receptor type 2 (Homo sapiens, UniProt O43603); test: Dose Response cell-based high-throughput screening assay to identify antagonists of galanin receptor 2 (GALR2). [Related pubchem assays: 828, 866 ]; format: functional
Galanin receptor type 2, sequence (O43603 whole entry): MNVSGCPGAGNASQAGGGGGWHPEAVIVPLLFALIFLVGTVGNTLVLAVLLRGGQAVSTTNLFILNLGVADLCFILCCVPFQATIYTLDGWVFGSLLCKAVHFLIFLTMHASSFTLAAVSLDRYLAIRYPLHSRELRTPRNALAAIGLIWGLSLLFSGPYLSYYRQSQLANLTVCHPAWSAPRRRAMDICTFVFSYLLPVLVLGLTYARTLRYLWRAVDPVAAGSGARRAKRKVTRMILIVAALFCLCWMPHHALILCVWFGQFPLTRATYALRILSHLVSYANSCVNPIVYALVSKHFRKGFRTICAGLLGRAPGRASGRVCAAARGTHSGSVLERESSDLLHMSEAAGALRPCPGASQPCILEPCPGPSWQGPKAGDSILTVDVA

[9] = target: Induced myeloid leukemia cell differentiation protein Mcl-1 (Homo sapiens, UniProt Q07820); format: functional
Induced myeloid leukemia cell differentiation protein Mcl-1, sequence (Q07820 whole entry): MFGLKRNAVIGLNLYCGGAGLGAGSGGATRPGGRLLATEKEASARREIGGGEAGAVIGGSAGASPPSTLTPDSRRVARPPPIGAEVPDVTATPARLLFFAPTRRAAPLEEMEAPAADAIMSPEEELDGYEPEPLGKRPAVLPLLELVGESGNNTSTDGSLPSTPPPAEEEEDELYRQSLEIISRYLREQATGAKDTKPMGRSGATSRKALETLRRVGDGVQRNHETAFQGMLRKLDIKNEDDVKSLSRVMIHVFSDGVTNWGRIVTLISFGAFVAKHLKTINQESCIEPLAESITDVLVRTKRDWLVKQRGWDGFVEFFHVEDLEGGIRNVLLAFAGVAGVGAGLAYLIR

[10] = target: 5-hydroxytryptamine receptor 1A (Homo sapiens, UniProt P08908); format: functional
5-hydroxytryptamine receptor 1A, sequence (P08908 whole entry): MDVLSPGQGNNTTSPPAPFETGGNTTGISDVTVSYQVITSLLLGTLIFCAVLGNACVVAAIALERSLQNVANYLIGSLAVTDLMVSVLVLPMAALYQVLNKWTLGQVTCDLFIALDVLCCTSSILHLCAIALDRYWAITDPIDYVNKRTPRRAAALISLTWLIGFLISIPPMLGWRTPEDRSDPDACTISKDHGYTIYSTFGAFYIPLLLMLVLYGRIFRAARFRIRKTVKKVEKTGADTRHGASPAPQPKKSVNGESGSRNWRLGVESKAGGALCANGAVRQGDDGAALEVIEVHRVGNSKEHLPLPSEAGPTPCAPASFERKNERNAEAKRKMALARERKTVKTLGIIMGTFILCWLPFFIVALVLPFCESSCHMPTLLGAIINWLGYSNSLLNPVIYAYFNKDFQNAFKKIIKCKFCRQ

Muscarinic acetylcholine receptor M1, sequence (P08482 whole entry): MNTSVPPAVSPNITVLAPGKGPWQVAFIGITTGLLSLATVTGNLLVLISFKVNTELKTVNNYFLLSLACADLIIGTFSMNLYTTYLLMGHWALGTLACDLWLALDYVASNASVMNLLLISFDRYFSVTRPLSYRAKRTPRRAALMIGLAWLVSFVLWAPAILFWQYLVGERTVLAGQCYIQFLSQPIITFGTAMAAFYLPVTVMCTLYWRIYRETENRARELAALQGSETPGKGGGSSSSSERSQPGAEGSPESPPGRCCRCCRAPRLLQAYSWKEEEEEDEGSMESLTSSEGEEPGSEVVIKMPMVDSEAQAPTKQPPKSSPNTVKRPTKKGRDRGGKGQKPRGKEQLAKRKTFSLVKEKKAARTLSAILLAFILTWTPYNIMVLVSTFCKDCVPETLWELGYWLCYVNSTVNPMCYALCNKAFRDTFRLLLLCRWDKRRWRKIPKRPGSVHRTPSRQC

## Cn1cc(-c2ccc(CN3C(=O)C(=O)c4cccc(F)c43)c(F)c2)cn1
[1]
  EC50: 2.32 µM (active)

## CCN(CC)S(=O)(=O)c1cccc(N2C(=O)/C(=C\Nc3ccccc3C(=O)O)c3ccccc3C2=O)c1
[2]
  IC50: > 40 µM (not active)
[3]
  EC50: 13.7 µM (active)
[4]
  EC50: > 60 µM (not active)
HEK293
  AC50: 0.167 µM (active)
[5]
  EC50: 0.21 µM (active)

## O=C(Nc1ccc(S(=O)(=O)NCc2ccccc2)cc1)c1ccccc1[N+](=O)[O-]
[6]
  IC50: 5.1 µM (active)

## Cc1ccc(S(=O)(=O)NCc2ccc(C(=O)NCCCN3CCC(Cc4ccccc4)CC3)cc2)cc1
[7]
  IC50: > 100 µM (active)

## O=c1c(C(c2ccccn2)c2c(O)oc3ccccc3c2=O)c(O)oc2ccccc12
[8]
  IC50: 152 µM (active)

## CCCOc1[nH]cnc2c3ccccc3nc1-2
Galanin receptor type 2
  IC50: > 42 µM (not active)
[9]
  IC50: 19.6 µM (not active)

## Cc1[nH]c2c(Cl)cccc2c1CCN
[10]
  EC50: > 50 µM (not active)

— ChEMBL document CHEMBL1201862, “PubChem BioAssay data set” (2004)
